Source: patent publication US20230192617A1, “AZABICYCLIC(THIO)AMIDES AS FUNGICIDAL COMPOUNDS” (Bayer CropScience Aktiengesellschaft, priority 2020, published 2023)

Columns and labels:
Pyrenophora teres = assay: In vivo preventive test on Pyrenophora teres (net blotch on barley); details: 240 h, 500 ppm of active ingredient, preventive spray on barley, evaluated 10 days after inoculation, read-out: efficacy
Procedure, shortened: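 Net blotch spores were sprayed onto barley leaves one day after foliar treatment with water-diluted DMSO/acetone/Tween 80 formulations (solvent-only controls). Plants were kept at 20° C: first 48 hours at 100% relative humidity, then 8 days at 70-80%.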

[1] = Measurement of Log P values by HPLC on reversed phase columns (EEC directive 79/831 Annex V.A8); type: physicochemical; details: reversed phase HPLC column, method [a]: LC-UV, acidic range, 0.1% formic acid in water and acetonitrile as eluent
Procedure, shortened: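 Log P derived from retention on reversed-phase columns (EEC directive 79/831 Annex V.A8), LC-UV, acetonitrile gradient 10% to 95% against water containing 0.1% formic acid, 0.001 M ammonium acetate, or 0.1% phosphoric acid; several values per method separated by "+".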

Alternaria alternata = Alternaria alternata in vitro cell test; type: cell-based; details: 120 h, 20 ppm of active ingredient, liquid culture, 5 days incubation, spectrometric measurement of mycelium growth, read-out: efficacy (inhibition of fungal growth)
Procedure, shortened: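 Spectrometric readout of mycelial growth after 5-day incubation gauged compound effects on spore germination and growth of A. alternata in liquid medium. Compounds were delivered in DMSO at ≤1% final. Absorbance was compared with untreated controls to give inhibition.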

chromatographic logP [1]	Structure (SMILES)	pest or weed control at 500 ppm (Pyrenophora teres) [%]	inhibition at 20 ppm (Alternaria alternata) [%]
3.85	O=C(NCC(F)(F)c1ccc(Cl)cc1Cl)c1c(Oc2cccc(C(F)(F)F)c2)nnc2c1COCC2 [I-228]	70 to 79	90 to 100
4.23	Cc1ccc(C(F)(F)CNC(=O)c2c(Oc3cccc(C4CC4)c3F)nnc3c2CCCC3)c(C)c1 [I-131]	90 to 100	90 to 100
4.17	O=C(NCC(F)(F)c1ccc(Br)cc1Cl)c1c(Oc2cccc(C(F)(F)F)c2)nnc2c1CCC2 [I-212]	90 to 100	90 to 100
4.57	O=C(NC[C@H](F)c1ccc(Cl)cc1Cl)c1c(Oc2cccc(C3CC3)c2F)nnc2ccccc12 (racemic) [I-072]	90 to 100	90 to 100
